According to article PMC3735840 (ACS chemical biology, 2013):

Tests used:
[1] = biological target: enzyme I (EI) (Escherichia coli, UniProt P08839); experiment: NMR chemical shift titration; type: binding
[2] = biological target: enzyme I (EI) (Escherichia coli, UniProt P08839, R465A); experiment: NMR chemical shift titration; type: binding
[3] = system: C=C(OP(=O)(O)O)C(=O)O; experiment: steady-state enzyme kinetics of the R465A EIC mutant with PEP; type: biochemical, Escherichia coli; details: Mg2+ active site of the C-terminal domain

| Compound | Kd [1] | Kd [2] | Km [3] |
| --- | --- | --- | --- |
| O=C(O)CCC(=O)C(=O)O [αKG, α-ketoglutarate] | ~2.2 mM | ~6.7 mM |  |
| enzyme I (EI) (Escherichia coli K-12; R465A) |  |  | 1600 ± 400 µM |
